Values of other authors, collected in patent US20150272930A1, “Fixed Dosage Formulations of Angiotensin Converting Enzyme (ACE) inhibitor and the Diuretic Chlorthalidone” (AILEX Pharmaceuticals PVT. LTD., priority 2014, published 2015).

Conditions: compared with HCTZ

## NS(=O)(=O)c1cc(C2(O)NC(=O)c3ccccc32)ccc1Cl (centres unmarked) [Chlorthalidone, 2-chloro-5-(1-hydroxy-3-oxo-1,2-dihydroisoindol-1-yl)-benzenesulfonamide]
  duration of action: longer duration of action
Over 24 hours
  antihypertensive effectiveness: more effective antihypertensive agent
